Key:
WPMY-1 cells [1] = test: ATAC-seq chromatin accessibility in WPMY-1 cells; format: cell-based, human; conditions: lactate-treated WPMY-1 cells, 48 h
Experimental: The cell pellet was resuspended in 50 μl lysis buffer and then spun down 500×g for 10 minutes at 4° C. The nuclei pellet was resuspended into 50 μl transposition reaction mixture containing Tn5 transposase from Nextera DNA Library Prep Kit (Illumina) and incubated at 37° C. for 30 minutes. Then the transposase-associated DNA was purified using MinElute PCR purification kit (QIAGEN). To amplify the library, the DNA was first amplified for 5 cycles using indexing primer from Nextera kit and NEBNext High-Fidelity 2×PCR master mix. To reduce the PCR amplification bias, 5 μl of amplified DNA after the first 5 cycles was used to do qPCR of 20 cycles to decide the number of cycles for the second round of PCR. Usually, the maximum cycle of the second round of PCR is 5 cycles. Then the total amplified DNA was size selected to fragments less than 800 bp using SPRI beads. Quantification of the ATAC-seq library was done with QuBit. The size of the pooled library was examined by TapeStation. Barcoded ATAC-seq libraries were pooled and paired end sequenced (sX75) on the Illumina NextSeq 500 using the High output V2.5 kit (Illumina Inc., San Diego, CA).
Peaks were annotated with ChipSeeker R package. […].

AP-1 = test: AP-1-driven luciferase reporter in WPMY-1 cells; format: cell-based, human; conditions: lactate 48 h
WPMY-1 cells [2] = test: Intracellular NAD levels in WPMY-1 cells; format: cell-based, human; conditions: stromal fibroblasts treated with lactate vs untreated
Experimental: Quantification was carried out using the NAD/NADH quantification colorimetric kit (Cat. No. MAK037, Sigma) according to the manufacturer's protocol. At least three independent measurements were carried out.

PARP-1 = test: Poly(ADP-ribosyl)ation in WPMY-1 cells (immunoblot, immunoprecipitation); format: cell-based, human
Experimental: Cells for protein analysis were lysed in RIPA buffer (20 mM Tris-HCl, […], 2 mM EDTA, 1% Triton-X, 10% glycerol, 0.1% SDS, and 0.5% sodium deoxycholate) with phosphatase and protease inhibitors. For immunoprecipitations, cells were lysed in IP lysis buffer (100 mM NaCl, 25 mM Tris, 1% Triton-X, 10% glycerol, with phosphatase and protease inhibitors) and immunoprecipitated with 25 μl of 50% slurry of protein […] beads (Bioworld). Immunoprecipitates were washed three times with lysis buffer, once with high salt (500 mM NaCl), and once more with lysis buffer. Protein concentration in lysates was determined by using Protein Assay Kit (Bio-Rad). Cell extracts and immunoprecipitated proteins were denatured, subjected to SDS-PAGE, transferred to PVDF membranes (GE Healthcare). After blocking with 5% nonfat dry milk in Tris-buffered saline and 0.1% Tween (TBS-T), the membranes were incubated with the specific antibodies (as listed in Key Resources Table) overnight at 4° C. After 2 hours incubation with the appropriate horseradish peroxidase-conjugated antibodies, the immune complexes were detected by chemiluminescence (Thermo Scientific) or Near-infrared fluorescence (LI-COR).

PC3 cells [3] = test: Trans-well migration and invasion of PC3 cells co-cultured with pre-treated WPMY-1 cells; format: cell-based, human; conditions: Olaparib 10 μM + PEGPH20 2.5 μg/ml, basal and ADT
Experimental: For co-culture migration and invasion assays, 8×10^4 WPMY-1 cells were plated onto the lower chamber of a 24 well plate in DMEN containing 10% FBS (basal conditions) or 10% charcoal stripped FBS (ADT conditions) and vehicle (DMSO) or Olaparib 10 μM or Olaparib 10 μM+PEGPH20 2.5 μg/ml for 48 hours. 5×10^4 PC3 were seeded in a transwell chamber (Corning Biocoat control inserts) or in a transwell invasion chamber (Corning BioCoat Matrigel Invasion Chambers), both with 8 μm membrane. PC3 were allowed to migrate or invade for 20 hours at 37° C., 5% CO2. Cells were fixed in cold methanol and stained with crystal violet.

PC3 cells [4] = test: Click-iT EdU proliferation of PC3 cells treated with CM from WPMY-1 cells; format: cell-based, human; conditions: Olaparib 10 μM + PEGPH20 2.5 μg/ml or CM incubation with Galunisertib 10 μM
Experimental: WPMY-1 cells were cultured in DMEN containing 10% FBS (basal conditions) or 10% charcoal stripped FBS (ADT conditions), then the cells were treated with vehicle (DMSO), Olaparib 10 μM, Olaparib 10 μM+PEGPH20 2.5 μg/ml for 96 hours, refreshing media and stimuli at 48 hours, conditioned media (CM) was generated by collecting supernatant on day 4. PC3 cells were seeded in a black-walled well (Thermo Fisher) and serum starved overnight. CM from WPMY-1 cells was added to PC3 for 24 h. PC3 were exposed to EdU incorporation for the last 2 hours. Proliferating cells were detected using Click-iT EdU Alexa fluor 488 (Thermo Fisher) following the manufacturer's instructions. Pictures were taken using EVOS M5000 Imaging System and EdU positive were measured using Fiji (Schindelin et al., 2012).

PC3 + WPMY-1 tumors = test: Subcutaneous xenograft co-implantation of PC3 and WPMY-1 cells in NSG mice; format: in vivo, mouse; conditions: Olaparib 40 mg/Kg + PEGPH20 0.0375 mg/Kg, twice a week, 2 weeks
Experimental: For mouse xenografts using PC3 PCa cells and sgC or sgAP-1 WPMY-1 stromal cells. 7 weeks old NSG mice were surgical castrated and let androgen levels drop for 10 days. Cells were trypsinized washed two times in PBS and resuspend in DMEN. 1×10^6 PC3 and 1×10^6 sgC or sgAP1-A WPMY-1 for each mouse were resuspended in 100 μl DMEM: Matrigel (1:1) and injected subcutaneously into both flanks of immunocompromised NSG mice (PC3+sgC WPMY-1 n=4; PC3+sgAP-1 WPMY-1 n=4). Tumors were allowed to grow for 1 month. Mice were euthanized and tumors were collected and analyzed histologically. For Olaparib treatment in mouse xenografts. PC3 PCa cells and WPMY-1 stromal cells were trypsinized washed two times in PBS and resuspend in DMEN. 1×10^6 PC3 and 1×10^6 WPMY-1 for each mouse were resuspended in 100 μl DMEM: Matrigel (1:1) and injected subcutaneously into both flanks of immunocompromised NSG mice. Tumors were allowed to grow for 14 days, and mouse were randomly divided to receive vehicle, n=10, Olaparib (40 mg/kg, 2 days each week, i.p.), n=10 or Olaparib (40 mg/kg, 2 days each week, i.p.)+_PEGPH20 (0.0375 mg/Kg, 2 days each week, retroorbital injection) n=10. Tumors were measured twice a week. Mice were euthanized 14 days after the initiation of the treatment and tumors were collected and analyzed histologically. For Olaparib treatment in mice, 13 weeks-old male TRAMP^+, n=18, were randomly distributed to receive vehicle, n=9, or Olaparib (40 mg/kg/, 5 days each week, i.p.), n=9. Mice were euthanized 1 month after the initiation of the treatment. Prostate and other organs were collected and analyzed histologically.
Tissues from indicated mice were isolated, fixed in zinc buffered formalin overnight at 4° C., dehydrated, and embedded in paraffin. Sections (5 μm) were stained with hematoxylin and eosin (H&E). For immunohistochemistry, sections were deparaffinized, rehydrated, and then treated for antigen retrieval. […] Stained sections were analyzed with a Zeiss light microscope supplemented with Zen 3.3 Bule edition software.

[5] = test system: hyaluronan (HA) in WPMY-1 cells; test: Immunofluorescence for HABP (HA deposition) in WPMY-1 cells; format: cell-based, human; conditions: Olaparib 10 μM + PEGPH20 2.5 μg/ml, 96 h, basal and ADT
Experimental: WPMY-1 cells were seeded in coverslides and cultured in DMEN containing 10% FBS (basal conditions) or 10% charcoal stripped FBS (ADT conditions), then the cells were treated with vehicle (DMSO), Olaparib 10 μM, Olaparib 10 μM+PEGPH20 2.5 μg/ml for 96 hours, refreshing media and stimuli at 48 hours. Cells were fixed in PFA 4% for 20 minutes at room temperature, permeabilize and blocked following abcam's immunofluorescence protocol. Then, cells were incubated overnight with Hyaluronic acid binding protein (HABP) at 4° C. Cells were incubated with Alexa conjugated streptavidin and mounted in slides with mowiol. Pictures were taken by Zeiss LSM 710 NLO Confocal Microscope.

[6] = test system: metastatic pancreas cancer; conditions: cited from earlier work

Molecule | chromatin accessibility (WPMY-1 cells [1]) | AP-1-driven luciferase reporter activity (AP-1) | NAD+ levels (WPMY-1 cells [2]) | poly(ADP-ribosyl)ation of c-JUN and c-FOS (PARP-1; lactate 48 h, immunoprecipitation) | total poly(ADP-ribosyl)ation levels (PARP-1; lactate-treated WPMY-1 cells) | Olaparib-enhanced migration of PC3 cells (PC3 cells [3]) | Olaparib-induced proliferation (EdU) (PC3 cells [4]) | anti-tumor activity of the combination (tumor volume) (PC3 + WPMY-1 tumors) | HA deposition in response to Olaparib [5] | primary endpoint of phase 3 trial [6]
CC(O)C(=O)O (stereo not shown) [lactate] | widespread decrease in chromatin accessibility | repressed an AP-1-driven luciferase reporter | lower than in untreated cells | impaired the poly(ADP-ribosyl) ation of c-JUN and c-FOS | reduced total poly(ADP-ribosyl) ation levels |  |  |  |  | 
PEGPH20: PEGylated Recombinant Human Hyaluronidase, clinical-grade recombinant hyaluronidase (provided by Halozyme Therapeutics) (protein, UniProt P38567 36-490, looked up, PEGylated) Hyaluronidase PH-20: LNFRAPPVIPNVPFLWAWNAPSEFCLGKFDEPLDMSLFSFIGSPRINATGQGVTIFYVDRLGYYPYIDSITGVTVNGGIPQKISLQDHLDKAKKDITFYMPVDNLGMAVIDWEEWRPTWARNWKPKDVYKNRSIELVQQQNVQLSLTEATEKAKQEFEKAGKDFLVETIKLGKLLRPNHLWGYYLFPDCYNHHYKKPGYNGSCFNVEIKRNDDLSWLWNESTALYPSIYLNTQQSPVAATLYVRNRVREAIRVSKIPDAKSPLPVFAYTRIVFTDQVLKFLSQDELVYTFGETVALGASGIVIWGTLSIMRSMKSCLLLDNYMETILNPYIINVTLAAKMCSQVLCQEQGVCIRKNWNSSDYLHLNPDNFAIQLEKGGKFTVRGKPTLEDLEQFSEKFYCSCYSTLSCKEKADVKDTDAVDVCIADGVCIDAFLKPPMETEEPQIFYNASPSTLS |  |  |  |  |  | completely blocked the enhanced migration of PC3 cells | blocked Olaparib-induced proliferation in stromal cells | enhanced Olaparib anti-tumor activity | efficiently degraded HA deposition | failed to meet the primary endpoint

— US20250073234A1, “COMBINATION THERAPIES INCLUDING PARP1 INHIBITORS” (Cornell University, priority 2022, published 2025)
